The values that follow come from the CATMoS acute toxicity set (Mansouri et al. 2021).

SMILES strings stand for the structures. Where a SMILES comes first, the peptide text is derived from it. [ ]: non-standard residue; d: D form. The star is where a group is joined. Sta = CC(C)C[C@H](N)[C@@H](O)CC(=O)O; Isovaleryl = CC(C)CC(=O)*

The series is described as follows: GHS categories as the set defines them, by LD50: 1 up to 5, 2 up to 50, 3 up to 300, 4 up to 2000, 5 above 2000 mg/kg. As to conditions: rat; in vivo; po. The source says:
[…]The data set underlying the modeling effort for this project was initially compiled by NICEATM and U.S. EPA’s CCTE. Briefly, LD50 data were collected from rat acute oral systemic toxicity tests, including limit tests, ranges/confidence intervals, and discrete LD50 values. The full data set included 21,200 LD50 entries for 15,688 substances. […] Data were reviewed to ensure that LD50 values with obvious errors in the extracted data such as unit conversion errors (e.g., comma and decimal separator misplacements) were either fixed or removed. After this review, 16,209 LD50 values remained. Many of the chemicals represented had multiple LD50 entries, requiring that a single representative value per Chemical Abstracts Service Registry Number (CASRN) identifier be defined to facilitate modeling efforts. Based on ATWG feedback and to define the representative LD50 as a protective value while accounting for the distribution across multiple LD50s, the median of the lowest quartile was computed using only discrete LD50 values (omitting limit test data and range and confidence interval data). A detailed summary of the data compilation is available online on the NICEATM webpage dedicated to the collaborative modeling project (NTP 2020).
[…][…] For categorical designations, limit test and range/confidence interval LD50 data were integrated wherever possible. As such, the number of chemicals with end point values/calls varies across the modeling end points (Table 3) based on whether chemicals had representative LD50 values and/or other data. If a chemical had both, the representative value was used to determine categorical calls rather than limit test data. Some data were useable only for certain end points and categories depending on the thresholds. For example, ranges that spanned multiple hazard categories were considered only for the binary (very toxic/nontoxic) end points and omitted from rendering a determination for hazard category assignment.
[…]The final data set comprising 11,992 chemicals was split into training and evaluation sets […], respectively. This process was performed semirandomly by ordering chemicals based on the five end points (categorical and continuous LD50 values) and partitioning every fourth record into the evaluation set accordingly. This approach was taken to ensure an equivalent distribution of the LD50 values and the different hazard categories between the training and the evaluation sets without supervised sampling of the chemicals based on structures (Figure 1A). The sources of the chemical structures were also kept equivalent between the two sets, with chemical structures obtained from DSSTox, being the highest quality, representing over 75% of each set (Figure 1B).

`CN1OCCC(=Cc2cc(C(C)(C)C)c(O)c(C(C)(C)C)c2)C1=O`: the GHS category is reported as 4.

Take `NS(=O)(=O)c1cc2c(cc1Cl)NC(C1CC3C=CC1C3)NS2(=O)=O` (stereo not given): the GHS category was 5. The result for `CCOC(=O)CCCCC(=O)OCC` reads 4; that for `CCOc1c(OC)cccc1-c1nc(=O)c2cc(C(=O)O)ccc2[nH]1`, 4; that for `CC(C)CC(=O)N[C@H](C(=O)N[C@H](C(=O)N[C@@H](CC(C)C)[C@@H](O)CC(=O)N[C@@H](C)C(=O)N[C@@H](CC(C)C)[C@@H](O)CC(=O)O)C(C)C)C(C)C` (Isovaleryl-VV[Sta]A[Sta]-OH), 5.

As to `CCOC(=O)C(Cl)(Cl)Cl`, the GHS category was 5.

As to `CN1C(=O)C(C)(C)Oc2cc(C(=O)c3ccc(Cl)cc3)ccc21`, the GHS category amounted to 5. With `CC(C)(C)c1ccc(OCC2CO2)cc1` (stereo not given), the GHS category is reported as 5. `CC[C@H]1OC(=O)C[C@@H](O)[C@H](C)[C@@H](O[C@@H]2O[C@H](C)[C@@H](O[C@H]3C[C@@](C)(O)[C@@H](O)[C@H](C)O3)[C@H](N(C)C)[C@H]2O)[C@@H](CC=O)C[C@@H](C)C(=O)C=CC(C)=CC1CO[C@@H]1O[C@H](C)[C@@H](O)[C@@H](OC)[C@H]1OC` (stereo not given in full) came in with a GHS category of 5. `CC(=O)N(CC(O)CO)c1c(I)c(C(=O)NCC(O)CO)c(I)c(C(=O)NCC(O)CO)c1I` (stereo not given): the GHS category is on record as 5. Compound `CC1CC(OC(=O)C(C)Oc2ccc(Cl)cc2)CC(C)(C)C1` (stereo not given) displayed a GHS category of 5. For `COc1cccc(N(C)C(=S)Oc2cccc(C(C)(C)C)c2)n1`, the GHS category is 5. For `CCOc1ccc(OC(=O)c2ccccc2OC(N)=O)cc1`, the GHS category was 5. Regarding `Clc1ccc(N/C(=N/C2CCCCC2)c2ccccc2)c(Cl)c1`, the GHS category is listed as 5.

`CCCCc1nc(C=O)c(Cl)[nH]1`: the GHS category turned out to be 5. In the case of `COc1ccc(CCN2CCC(Nc3nc4ccccc4n3Cc3ccc(F)cc3)CC2)cc1` it was 5; in that of `COc1cc(OC)nc(NC(=O)NS(=O)(=O)c2ncccc2OCC(F)(F)F)n1`, 5; in that of `COc1nc2cc(Cl)ccc2o1`, 4.

In turn, `O=C=NS(=O)(=O)c1ccccc1C(F)(F)F` returned a GHS category of 4. In the case of `C#C[C@]1(O)CC[C@H]2[C@@H]3CCc4cc(OC)ccc4[C@H]3CC[C@@]21C` it was 5; in that of `CCOC(=O)C(C)O` (stereo not given), 5. The result for `CCCCOC(=O)c1ccc(-n2nc(OCCN(C)C)c3ccccc32)cc1` reads 4; that for `C[Si]1(C)O[Si](C)(C)O[Si](C)(C)O[Si](C)(C)O[Si](C)(C)O[Si](C)(C)O1`, 5; that for `CCOC(C)(C)CC`, 5. The result for `CCO[Si](CC(C)C)(OCC)OCC` reads 5; that for `CC(=O)Oc1ccccc1C(=O)Oc1cccc(CO[N+](=O)[O-])c1`, 5; that for `CCC(CC)CC1(C(=O)O)CCCCC1`, 4. In the case of `COc1ccc2c(c1)CCN(c1ccccc1)C2c1ccccc1` (stereo not given), the GHS category is on record as 4. Consider `CCNC(=O)[C@@H]1CCCN1C(=O)[C@H](CCCNC(=N)N)NC(=O)[C@H](CC(C)C)NC(=O)[C@@H](CC(C)C)NC(=O)[C@H](Cc1ccc(O)cc1)NC(=O)[C@H](CO)NC(=O)[C@H](Cc1c[nH]c2ccccc12)NC(=O)[C@H](Cc1cnc[nH]1)NC(=O)[C@@H]1CCC(=O)N1`, for which the GHS category came to 5. In the case of `CC(c1ccc(O)cc1)(c1ccc(O)cc1)c1ccc(O)cc1` it was 5; in that of `CCN(Cc1cccc(S(=O)(=O)O)c1)c1ccc(C(=C2C=CC(=[N+](CC)Cc3cccc(S(=O)(=O)O)c3)C=C2)c2ccccc2S(=O)(=O)[O-])cc1`, 5. In turn, `CC(=O)OCOC(=O)C1=C(COC(N)=O)SC2C(C(C)O)C(=O)N12` (stereo not given) had a GHS category of 5. The result for `O=C(O)c1cc(Br)nn1-c1ncccc1Cl` reads 5. Take `CCCC(=O)OCCC(C)C`: the GHS category was 5. The result for `CO/N=C(\C(=O)N[C@@H]1C(=O)N2C(C(=O)[O-])=C(C[N+]34CCC(C(N)=O)(CC3)CC4)CS[C@H]12)c1nsc(N)n1` reads 5; that for `CO/N=C(\C(=O)N[C@@H]1C(=O)N2C(C(=O)OCOC(=O)C(C)(C)C)=C(/C=C\c3scnc3C)CS[C@H]12)c1csc(N)n1`, 5; that for `COc1ccc2c(c1)CCN(c1ccccc1)C2c1ccccc1F` (stereo not given), 4. In the case of `C=CCN1CCC23c4c5ccc(O)c4OC2C(=O)CCC3(O)C1C5` (stereo not given) it was 4; in that of `CN1C(=O)COc2cc(C(=O)C=Cc3ccc(O)cc3)ccc21`, 5; in that of `Cc1cccc(C)c1N(CCCC(=O)O)C(=O)c1ccccc1Cl`, 5. The result for `CCCCOC(=O)c1ccc(-n2nc(OC)c3ccccc32)cc1` reads 5; that for `CCCCCCCC(=O)Nc1ccc(Cc2ccccn2)c([N+](=O)[O-])c1`, 3; that for `CCO[Si](CCCSSCCC[Si](OCC)(OCC)OCC)(OCC)OCC`, 5.

With `CCO[Si](OCC)(OCC)N(CC)CC`, the GHS category was 4. As to `N[C@H](C(=O)O)c1ccc(O)cc1`, the GHS category is listed as 5. The result for `N#CCN(CC#N)CC#N` reads 3; that for `S=C(SSSSSSC(=S)N1CCCCC1)N1CCCCC1`, 5. In the case of `CC[N+](C)(CC)CCSC1=Nc2ccccc2N=C(c2ccc(Sc3ccccc3)cc2)C1`, the GHS category was 5. The result for `CNC(C)C(O)c1ccc(NS(C)(=O)=O)cc1` (stereo not given) reads 5; that for `O=C1Nc2ccccc2OC1(c1ccc(O)cc1)c1ccc(O)cc1`, 5. `CCN(CC)CCC1=NC(=C2C=CC=CC2=O)NO1` had a GHS category of 5. `CC1(C)O[C@@H]2C[C@H]3[C@@H]4CCC5=CC(=O)CC[C@]5(C)[C@@]4(F)[C@@H](O)C[C@]3(C)[C@]2(C(=O)CCl)O1` gave a GHS category of 5. `Nc1ccc([N+](=O)[O-])cc1O` displayed a GHS category of 5. In the case of `CC/C=C\CCC1(C)CCC(=O)O1` (stereo not given) it was 5; in that of `CCOC(=O)C(=O)Nc1cc(SCCOC)nc(C)n1`, 4; in that of `CCCCCCCOc1ccc(-c2ccc(C#N)cc2)cc1`, 5. `CC(C)=CCCC(C)=CC1OCCO1` showed a GHS category of 5. The compound `O=c1c2n[nH]nc2nc2sc(CCC3CCCCC3)nn12` showed a GHS category of 5. The result for `O=P(OCC(CBr)(CBr)CBr)(OCC(CBr)(CBr)CBr)OCC(CBr)(CBr)CBr` reads 5. Turning to `C[C@H]1c2cccc(O)c2C(=O)C2=C(O)[C@]3(O)C(=O)C(C(N)=O)=C(O)[C@@H](N(C)C)[C@@H]3[C@@H](O)[C@@H]21`, the GHS category is 5. In the case of `CCOCCOCCOC(=O)C1CCC(C(=O)OCCOCCOCC)CC1` (stereo not given) it was 5; in that of `CC(C)(CCn1c(=O)[nH]c2ccccc21)NCC(O)COc1cccc2ccccc12` (stereo not given), 5. In the case of `CN(C/C=C/C#CC(C)(C)C)Cc1cccc2ccccc12` it was 5; in that of `Cc1cc(C2(c3ccc(O)c(C)c3)CCCCC2)ccc1O`, 5. In the case of `C[C@H]1CCCC(=O)CCCC=Cc2cc(O)cc(O)c2C(=O)O1` it was 5; in that of `CC(C)=CCOC1=C(C(=O)Nc2ccccn2)N(C)S(=O)(=O)c2cc(Cl)sc21`, 2; in that of `CCCOc1ccc(-c2ccc(C#N)cc2)cc1`, 5. In turn, `Cn1nnnc1SCCCS(=O)c1ccccn1` (stereo not given) returned a GHS category of 4.

`O=S(=O)(O)CCN1CCN(CCO)CC1` came in with a GHS category of 5. In turn, `CNC(=O)c1sc(-c2ccccc2OC)nc1C` registered a GHS category of 5.

Compound `c1ccc([Si]2(c3ccccc3)O[Si](c3ccccc3)(c3ccccc3)O[Si](c3ccccc3)(c3ccccc3)O[Si](c3ccccc3)(c3ccccc3)O2)cc1` had a GHS category of 5. Take `Oc1ccc2c(c1)CCN(c1ccccc1)C2c1ccc(F)cc1` (stereo not given): the GHS category stood at 4. In the case of `O=C1NC(c2ccccc2)=C2C(=O)NC(c3ccccc3)=C12` it was 5. For the compound `CCCCCCCC(=O)N(CCO)CCO`, the GHS category is 5.

As for `Cn1nnnc1SCC1=C(C(=O)O)N2C(=O)[C@@H](NC(=O)[C@H](O)c3ccccc3)[C@H]2SC1`, the GHS category is given as 5. The result for `O=S(=O)(O)c1ccc(Nc2nc(Cl)nc(Cl)n2)cc1` reads 5; that for `CCC(=O)OC(OC(C(=O)O)[P+](=O)CCCCc1ccccc1)C(C)C` (stereo not given), 5; that for `Cc1cccc(C)c1NC(=O)C1CCCCN1C` (stereo not given), 5. Compound `O=C(O)COc1nn(-c2cccc(C(F)(F)F)c2)c2ncccc12` displayed a GHS category of 4.

`O=C(O)CSCC(=O)NC1CCSC1=O` (stereo not given) gave a GHS category of 5.
